Data as given in paper PMC4012000 (Pharmaceutical research, 2013).

Test system: Caco-2 cells
Assay: Effect of curcumin on efflux transporters and permeability in Caco-2 cells
Assay type: cell-based
Conditions: in vitro studies, data not shown

COc1cc(/C=C/C(=O)CC(=O)/C=C/c2ccc(O)c(OC)c2)ccc1O [curcumin, Curcumin]
effect on efflux transporters: down-regulation of BCRP, MDR1 and MRP1
